# From PubChem BioAssay AID2060626 (Molecular Pharmacology Branch, DTP, NCI, 2025)
# “And” between values parts separate entries of the source, which are not always exact repeats. Identical values can stand only once.
# System: 168753-222-R-J1-PDC complex spheroid viability
# Experiment: Anticancer human tumor 168753-222-R-J1-PDC patient-derived bladder carcinoma cell line growth inhibition [CLK]
# Conditions: for viability, T/C: stronger effect = lower value
# How it was run: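 Multi-cell-type spheroids combined patient-derived tumor cells with HUVEC endothelial cells and human mesenchymal stem cells. Paired agents were dosed in half-log steps down from about clinical Cmax, or from 10 microM where Cmax was unknown.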
# [1] = curve of first compound, second compound 0.0316 µM
# [2] = curve of first compound, second compound 0.1 µM
# [3] = curve of first compound, second compound 0.316 µM
# [4] = curve of first compound, second compound 1 µM
# [5] = curve of first compound, second compound 3.16 µM
# [6] = curve of first compound, second compound 10 µM
# [7] = second compound 0.0316 µM, first compound 0.0316 µM
# [8] = second compound 0.0316 µM, first compound 0.1 µM
# [9] = second compound 0.0316 µM, first compound 0.316 µM
# [10] = second compound 0.0316 µM, first compound 1 µM
# [11] = second compound 0.0316 µM, first compound 3.16 µM
# [12] = second compound 0.0316 µM, first compound 10 µM
# [13] = second compound 0.1 µM, first compound 0.0316 µM
# [14] = second compound 0.1 µM, first compound 0.1 µM
# [15] = second compound 0.1 µM, first compound 0.316 µM
# [16] = second compound 0.1 µM, first compound 1 µM
# [17] = second compound 0.1 µM, first compound 3.16 µM
# [18] = second compound 0.1 µM, first compound 10 µM
# [19] = second compound 0.316 µM, first compound 0.0316 µM
# [20] = second compound 0.316 µM, first compound 0.1 µM
# [21] = second compound 0.316 µM, first compound 0.316 µM
# [22] = second compound 0.316 µM, first compound 1 µM
# [23] = second compound 0.316 µM, first compound 3.16 µM
# [24] = second compound 0.316 µM, first compound 10 µM
# [25] = second compound 1 µM, first compound 0.0316 µM
# [26] = second compound 1 µM, first compound 0.1 µM
# [27] = second compound 1 µM, first compound 0.316 µM
# [28] = second compound 1 µM, first compound 1 µM
# [29] = second compound 1 µM, first compound 3.16 µM
# [30] = second compound 1 µM, first compound 10 µM
# [31] = second compound 3.16 µM, first compound 0.0316 µM
# [32] = second compound 3.16 µM, first compound 0.1 µM
# [33] = second compound 3.16 µM, first compound 0.316 µM
# [34] = second compound 3.16 µM, first compound 1 µM
# [35] = second compound 3.16 µM, first compound 3.16 µM
# [36] = second compound 3.16 µM, first compound 10 µM
# [37] = second compound 10 µM, first compound 0.0316 µM
# [38] = second compound 10 µM, first compound 0.1 µM
# [39] = second compound 10 µM, first compound 0.316 µM
# [40] = second compound 10 µM, first compound 1 µM
# [41] = second compound 10 µM, first compound 3.16 µM
# [42] = second compound 10 µM, first compound 10 µM
# 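Further: viability measured after seven days of drug exposure.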
# 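Wherever viability, T/C is given: luminescence signal used as surrogate for viable cell amount; 100% = DMSO vehicle control wells.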
smiles,measurement,setting,value
CC(Nc1ccc2c(c1)OCCn1cc(N3C(=O)OCC3C(F)F)nc1-2)C(N)=O (centres undefined) + CNC(=O)c1ccc(Nc2nc(OC3CCCC3)c3c(-c4ccc5nc(C)oc5c4)c[nH]c3n2)c(OC)c1,IC50,[1],161 nM
same,IC50,[2],133 nM
same,IC50,[3],45.8 nM
same,IC50,[4],< 31.6 nM
same,IC50,[5],< 31.6 nM
same,IC50,[6],< 31.6 nM
same,"viability, T/C",[7],93.1%
same,"viability, T/C",[8],71%
same,"viability, T/C",[9],20.2%
same,"viability, T/C",[10],15.5%
same,"viability, T/C",[11],13.3%
same,"viability, T/C",[12],13%
same,"viability, T/C",[13],83.7%
same,"viability, T/C",[14],60.5%
same,"viability, T/C",[15],18.3%
same,"viability, T/C",[16],14.3%
same,"viability, T/C",[17],13.5%
same,"viability, T/C",[18],11.6%
same,"viability, T/C",[19],62.5%
same,"viability, T/C",[20],23.5%
same,"viability, T/C",[21],15%
same,"viability, T/C",[22],9.68%
same,"viability, T/C",[23],9.36%
same,"viability, T/C",[24],9.19%
same,"viability, T/C",[25],24.3%
same,"viability, T/C",[26],13.5%
same,"viability, T/C",[27],6.89%
same,"viability, T/C",[28],2.64%
same,"viability, T/C",[29],1.07%
same,"viability, T/C",[30],2.28%
same,"viability, T/C",[31],14.9%
same,"viability, T/C",[32],10.1%
same,"viability, T/C",[33],3.74%
same,"viability, T/C",[34],0.82%
same,"viability, T/C",[35],1.82%
same,"viability, T/C",[36],3.99%
same,"viability, T/C",[37],12.8%
same,"viability, T/C",[38],9.3%
same,"viability, T/C",[39],3.4%
same,"viability, T/C",[40],0.76%
same,"viability, T/C",[41],0.78%
same,"viability, T/C",[42],1.14%
Nc1ccn(C2OC(CO)C(O)C2(F)F)c(=O)n1 (centres undefined),"viability, T/C",compound 0.0316 µM,57.8% and 83.1%
same,"viability, T/C",compound 0.1 µM,24.7% and 60.2%
same,"viability, T/C",compound 0.316 µM,18% and 50.2%
same,"viability, T/C",compound 1 µM,23.2% and 52.5%
same,"viability, T/C",compound 3.16 µM,26.2% and 46.9%
same,"viability, T/C",compound 10 µM,21.6% and 37.8%
C=CC(=O)Nc1cc(Nc2nccc(-c3cn(C)c4ccccc34)n2)c(OC)cc1N(C)CCN(C)C,"viability, T/C",compound 0.000949 µM,111% and 100%
same,"viability, T/C",compound 0.003 µM,108% and 99.8%
same,"viability, T/C",compound 0.00949 µM,97.8% and 98.2%
same,"viability, T/C",compound 0.03 µM,98% and 106%
same,"viability, T/C",compound 0.0949 µM,103% and 106%
same,"viability, T/C",compound 0.3 µM,89.4% and 103%
same,IC50,curve of compound,> 300 nM
C=C(F)C(=O)N1CCN(c2nc(OCC3CCCN3C)nc3c2CCN(c2cccc4cccc(Cl)c24)C3)CC1CC#N (centres undefined) + CNC(=O)c1ccc(Nc2nc(OC3CCCC3)c3c(-c4ccc5nc(C)oc5c4)c[nH]c3n2)c(OC)c1,IC50,[1],> 10000 nM
same,IC50,[2],7020 nM
same,IC50,[3],8050 nM
same,IC50,[4],41.2 nM
same,IC50,[5],< 31.6 nM
same,IC50,[6],< 31.6 nM
same,"viability, T/C",[7],104%
same,"viability, T/C",[8],120%
same,"viability, T/C",[9],102%
same,"viability, T/C",[10],102%
same,"viability, T/C",[11],110%
same,"viability, T/C",[12],52.8%
same,"viability, T/C",[13],94.1%
same,"viability, T/C",[14],103%
same,"viability, T/C",[15],83.9%
same,"viability, T/C",[16],96.2%
same,"viability, T/C",[17],96.5%
same,"viability, T/C",[18],30%
same,"viability, T/C",[19],79.5%
same,"viability, T/C",[20],75.8%
same,"viability, T/C",[21],81.9%
same,"viability, T/C",[22],74.3%
same,"viability, T/C",[23],90%
same,"viability, T/C",[24],43.1%
same,"viability, T/C",[25],50.1%
same,"viability, T/C",[26],50.6%
same,"viability, T/C",[27],45.5%
same,"viability, T/C",[28],28.8%
same,"viability, T/C",[29],46.8%
same,"viability, T/C",[30],31.7%
same,"viability, T/C",[31],23.4%
same,"viability, T/C",[32],26.8%
same,"viability, T/C",[33],26.3%
same,"viability, T/C",[34],17.8%
same,"viability, T/C",[35],18.4%
same,"viability, T/C",[36],18.1%
same,"viability, T/C",[37],22.6%
same,"viability, T/C",[38],21.2%
same,"viability, T/C",[39],24.7%
same,"viability, T/C",[40],19.3%
same,"viability, T/C",[41],17.5%
same,"viability, T/C",[42],14.6%
C=C(F)C(=O)N1CCN(c2nc(OCC3CCCN3C)nc3c2CCN(c2cccc4cccc(Cl)c24)C3)CC1CC#N (centres undefined) + CN1CCN(c2cc(C(=O)Nc3cc4cc(-c5cnn(C)c5)ccc4cn3)ccn2)CC1,IC50,[1],3260 nM
same,IC50,[2],1230 nM
same,IC50,[3],< 31.6 nM
same,IC50,[4],< 31.6 nM
same,IC50,[5],< 31.6 nM
same,IC50,[6],< 31.6 nM
same,"viability, T/C",[7],89.1%
same,"viability, T/C",[8],111%
same,"viability, T/C",[9],85.8%
same,"viability, T/C",[10],101%
same,"viability, T/C",[11],51.4%
same,"viability, T/C",[12],0.91%
same,"viability, T/C",[13],58.7%
same,"viability, T/C",[14],46.7%
same,"viability, T/C",[15],63.5%
same,"viability, T/C",[16],56.3%
same,"viability, T/C",[17],21.8%
same,"viability, T/C",[18],0.32%
same,"viability, T/C",[19],15.6%
same,"viability, T/C",[20],13%
same,"viability, T/C",[21],11.8%
same,"viability, T/C",[22],8.4%
same,"viability, T/C",[23],4.48%
same,"viability, T/C",[24],1.3%
same,"viability, T/C",[25],0.47%
same,"viability, T/C",[26],0.78%
same,"viability, T/C",[27],0.38%
same,"viability, T/C",[28],0.16%
same,"viability, T/C",[29],0.12%
same,"viability, T/C",[30],1.07%
same,"viability, T/C",[31],0.26%
same,"viability, T/C",[32],0.24%
same,"viability, T/C",[33],0.44%
same,"viability, T/C",[34],0.14%
same,"viability, T/C",[35],0.87%
same,"viability, T/C",[36],0.23%
same,"viability, T/C",[37],0.27%
same,"viability, T/C",[38],0.19%
same,"viability, T/C",[39],0.28%
same,"viability, T/C",[40],0.24%
same,"viability, T/C",[41],0.36%
same,"viability, T/C",[42],2.34%
